According to patent US20230101312A1, “SOS1 INHIBITORS” (Mirati Therapeutics, Inc., priority 2020, published 2023):

Tested on: MKN1 cells or H358
Assay: pERK inhibition in-cell western
Type: cell-based
Settings: MKN1 or H358 cells (cell line not given), 1 hour with compound, GAPDH normalized
Experimental: This Example illustrates that exemplary compounds of the present invention prevent KRas-mediated GTP nucleotide exchange mediated by SOS1 to inhibit KRas activity thereby inhibiting the generation of the downstream effector pERK. MKN1 cells (15,000/w) or H358 (30,000/w) were seeded in a black clear flat bottom 96-well cell culture plate (Corning, #3904) and incubated at 37° C. overnight. Assay day 1, cells were dosed with compounds of Formula (I) with a 10 μm starting concentration and serially diluted 3× for a total of 9 concentrations. The cells were incubated for 1 hour with the compounds solubilized in DMSO at 37° C. Cells were immediately fixed by adding 50 μL of 4% formaldehyde to all wells in a fume hood and the plates were incubated for 20 minutes at room temperature. The formaldehyde was discarded from the plates and 150 μL of ice-cold methanol was added to permeabilize the cells for 10 minutes at −20° C. The methanol was discarded from each of the plates and any liquid remaining in the plate by tapping the plate against paper towels. Cells were then blocked with 150 μL of Odyssey blocking buffer (LI-COR Biosciences #927-50010) using 0.05% Tween for 1 hour at room temperature on a shaker. […] The IC50 values were then calculated with the Graph pad Prism software.

CNCc1ccccc1-c1csc([C@@H](C)Nc2ncc(C#N)c3cc(OC)c(OC)cc23)c1 [Example 1-1, (R)-6,7-dimethoxy-1-((1-(4-(2-((methylamino)methyl)phenyl)thiophen-2-yl)ethyl)amino)isoquinoline-4-carbonitrile] showed an IC50 of 2050 nM.
